The values that follow are results of earlier work, collected in patent US11052154B2, “Ras protein degradation inducing molecule and pharmaceutical composition” (Tokyo University of Science Foundation, priority 2016, dated 2021).

SMILES strings stand for the structures.

For one series, the target named is β5i (Homo sapiens, UniProt P28062). The note with it: Table 18, 20S immunoproteasome inhibitor; cited from earlier work.
The next series has as its target β2i (Homo sapiens, UniProt P40306). The settings on record: Table 18, 20S immunoproteasome inhibitor; cited from earlier work.
Series [1] has as its target T1, PAC-3 (molecule assembly factor) (Homo sapiens, UniProt Q9BT73).
T1 sequence (Q9BT73 1-122): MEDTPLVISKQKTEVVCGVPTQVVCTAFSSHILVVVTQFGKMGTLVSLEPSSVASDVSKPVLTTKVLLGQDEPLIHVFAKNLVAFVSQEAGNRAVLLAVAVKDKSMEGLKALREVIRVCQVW
The settings on record: Table 17; cited from earlier work.

For the molecule `COc1ccc(C[C@H](NC(=O)[C@H](C)NC(=O)CN2CCOCC2)C(=O)N[C@@H](Cc2ccccc2)C(=O)[C@@]2(C)CO2)cc1` [PR-957], on β5i, the “Others: immunoproteasome subunit inhibited (β5i)” value is “β5i is inhibited”.

Turning to `CCCC[C@@H](C=O)NC(=O)[C@H](CC(C)C)NC(=O)OCc1ccccc1` [IPSI-001], on β2i, the “Others: immunoproteasome subunit inhibited (β2i)” value is on record as “β2i is inhibited”.

Regarding `CC(C)C(O)(CC1C(=O)/C(=C(\O)[C@H]2C3CCCC[C@H]3C=C[C@H]2C)C(=O)N1C)C(=O)O` (stereo partly drawn) [JBIR-22], the “Others: PAC-3 inhibition” value in series [1] is “PAC-3 (molecule assembly factor) inhibition)”.
